Assay results as given in publication PMC11243320, “Tailoring Fibroblast-Activation Protein Targeting for Theranostics: A Comparative Preclinical Evaluation of the ^68Ga- and ^177Lu-Labeled Monomeric and Dimeric Fibroblast-Activation Protein Inhibitors DOTA.SA.FAPi and DOTAGA.(SA.FAPi)2” (Molecules, 2024).

System: PC3 tumor-bearing mice
Assay: Ex vivo biodistribution of 177Lu-labeled radiotracers in PC3 xenografts
Conditions: for Biodistribution Blood / Biodistribution Bone / Biodistribution Heart / Biodistribution Intestine / Biodistribution Kidney / Biodistribution Liver / Biodistribution Lung / Biodistribution Muscle / Biodistribution PC3-Tumor / Biodistribution Pancreas / Biodistribution Spleen / Biodistribution Stomach / Tumor/Blood ratio / Tumor/Liver ratio / Tumor/Muscle ratio / Tumor/Pancreas ratio: PC3 xenografts
Experimental: U87MG and PC3 tumor-bearing mice: Female athymic BALB/c (6 weeks/16–20 g) and male athymic BALB/c nude mice (6 weeks/20–25 g) were implanted with U87MG or PC3 cells (5 × 10^6/100 µL PBS) into their right shoulder, respectively. The animals were used for biodistribution and PET/SPECT/CT imaging studies (Animal License No: BE98/2021).
Ten pmol (0.06–0.08 MBq) of the radiotracers in 100 µL of NaCl 0.9% were injected intravenously into the tail vein of PC3 tumor-bearing mice. Biodistribution studies were conducted at 1, 4, 24, and 48 h after the injection of [^177Lu]Lu-DOTA.SA.FAPi and at 4, 24, 48, 72, and 96 h after the injection of [^177Lu]Lu-DOTAGA.(SA.FAPi)2 (Supplemental Data). […]
was counted in a γ-counter. Biodistribution data are given as the percent of injected activity per gram of tissue (% IA/g) and as means ± SD (n = 4). […]
[177Lu]Lu-DOTA.SA.FAPi and [177Lu]Lu-DOTAGA.(SA.FAPi)2
Ten pmol (0.06-0.08 MBq) of [177Lu]Lu-monomer and [177Lu]Lu-dimer in 100 µL of NaCl 0.9% were injected intravenously into the tail vein of PC3 tumor-bearing mice. The PC3 tumor-bearing mice were used between the 15th and 17th day after the xenograft implantation and its size was 281 ± 75 mm3. Animals were terminally anesthetized by intraperitoneal injection of an overdose of pentobarbital natrium (150 mg/kg; Streuli Pharma SA, Uznach, Switzerland) 1, 4, 24 and 48 h after the injection of [177Lu]Lu-DOTA.SA.FAPi and at 4, 24, 48, 72 and 96 h after the injection of [177Lu]Lu-DOTAGA.(SA.FAPi)2. The organs of interest were dissected and weighed, and the radioactivity in the tissue samples was counted in a γ-counter. The biodistribution data are given as the percent of injected activity per gram of tissue (% IA/g) and as means ± SD (n = 4). […]
0.25mm. The reconstructed data were corrected for Lutetium-177 decay, normalized, and filtered using a Gaussian 3D algorithm with a 2 mm isotropic kernel and generated using PMOD software. […]
The color scale of […]
the SPECT images was set as 0 to 13% IA/mL allowing for qualitative comparisons among the images.

- PC3 tumor uptake (PC3 tumor-bearing mice, 4 h p.i.): 8.9 ± 0.2 %I.A./g
- Biodistribution Blood (1 h): 9.1 ± 1.8 % IA/g
- Biodistribution Bone (1 h): 4.0 ± 0.5 % IA/g
- Biodistribution Heart (1 h): 3.1 ± 0.7 % IA/g
- Biodistribution Intestine (1 h): 3.2 ± 0.4 % IA/g
- Biodistribution Kidney (1 h): 4.3 ± 0.5 % IA/g
- Biodistribution Liver (1 h): 3.8 ± 0.2 % IA/g
- Biodistribution Lung (1 h): 4.3 ± 0.6 % IA/g
- Biodistribution Muscle (1 h): 3.7 ± 1.0 % IA/g
- Biodistribution PC3-Tumor (1 h): 9.6 ± 0.9 % IA/g
- Biodistribution Pancreas (1 h): 12 ± 1.1 % IA/g
- Biodistribution Spleen (1 h): 3.0 ± 0.1 % IA/g
- Biodistribution Stomach (1 h): 2.5 ± 0.3 % IA/g
- Tumor/Blood ratio (1 h): 1.1
- Tumor/Liver ratio (1 h): 2.2 ± 0.2
- Tumor/Muscle ratio (1 h): 2.8 ± 1.0
- Tumor/Pancreas ratio (1 h): 0.8 ± 0.1
- Biodistribution Blood (4 h): 3.1 ± 0.2 % IA/g
- Biodistribution Bone (4 h): 4.2 ± 0.6 % IA/g
- Biodistribution Heart (4 h): 1.5 ± 0.3 % IA/g
- Biodistribution Intestine (4 h): 1.8 ± 0.3 % IA/g
- Biodistribution Kidney (4 h): 2.6 ± 0.03 % IA/g
- Biodistribution Liver (4 h): 3.0 ± 0.1 % IA/g
- Biodistribution Lung (4 h): 1.7 ± 0.07 % IA/g
- Biodistribution Muscle (4 h): 2.3 ± 0.1 % IA/g
- Biodistribution PC3-Tumor (4 h): 8.9 ± 0.2 % IA/g
- Biodistribution Pancreas (4 h): 5.3 ± 0.4 % IA/g
- Biodistribution Spleen (4 h): 1.7 ± 0.1 % IA/g
- Biodistribution Stomach (4 h): 1.7 ± 0.5 % IA/g
- Tumor/Blood ratio (4 h): 2.9 ± 0.2
- Tumor/Liver ratio (4 h): 3.0 ± 0.1
- Tumor/Muscle ratio (4 h): 3.9 ± 0.1
- Tumor/Pancreas ratio (4 h): 1.7 ± 0.2
- Biodistribution Blood (24 h): 0.2 ± 0.09 % IA/g
- Biodistribution Bone (24 h): 0.7 ± 0.2 % IA/g
- Biodistribution Heart (24 h): 0.1 ± 0.04 % IA/g
- Biodistribution Intestine (24 h): 0.2 ± 0.02 % IA/g
- Biodistribution Kidney (24 h): 0.6 ± 0.06 % IA/g
- Biodistribution Liver (24 h): 1.9 ± 0.3 % IA/g
- Biodistribution Lung (24 h): 0.2 ± 0.03 % IA/g
- Biodistribution Muscle (24 h): 0.3 ± 0.04 % IA/g
- Biodistribution PC3-Tumor (24 h): 1.8 ± 0.1 % IA/g
- Biodistribution Pancreas (24 h): 0.3 ± 0.1 % IA/g
- Biodistribution Spleen (24 h): 0.2 ± 0.03 % IA/g
- Biodistribution Stomach (24 h): 0.1 ± 0.02 % IA/g
- Biodistribution Blood (48 h): 0.01 ± 0.0 % IA/g
- Biodistribution Bone (48 h): 0.1 ± 0.01 % IA/g
- Biodistribution Heart (48 h): 0.03 ± 0.02 % IA/g
- Biodistribution Intestine (48 h): 0.04 ± 0.0 % IA/g
- Biodistribution Kidney (48 h): 0.12 ± 0.07 % IA/g
- Biodistribution Liver (48 h): 1.1 ± 0.1 % IA/g
- Biodistribution Lung (48 h): 0.05 ± 0.04 % IA/g
- Biodistribution Muscle (48 h): 0.05 ± 0.07 % IA/g
- Biodistribution PC3-Tumor (48 h): 1.0 ± 0.1 % IA/g
- Biodistribution Pancreas (48 h): 0.06 ± 0.01 % IA/g
- Biodistribution Spleen (48 h): 0.1 ± 0.06 % IA/g
- Biodistribution Stomach (48 h): 0.05 ± 0.02 % IA/g
Structure (SMILES): N#C[C@@H]1CC(F)(F)CN1C(=O)CNC(=O)c1ccnc2ccc(OCCCCNc3c(NCCNC(=O)CN4CCN(CC(=O)[O-])CCN(CC(=O)[O-])CCN(CC(=O)[O-])CC4)c(=O)c3=O)cc12.[177Lu+3] [[^177Lu]Lu-DOTA.SA.FAPi]
